PubChem BioAssay AID248 (DTP/NCI, 2004)
“And” between values parts separate entries of the source, which are not always exact repeats. Equal entries are not always repeated. Toxic doses and inconclusive results are not listed.

Tested on: L1210 leukemia ip in BDF1 mice, survival T/C
Assay: NCI In Vivo Anticancer Drug Screen. Data for tumor model L1210 Leukemia (intraperitoneal) in B6D2F1 (BDF1) mice
Conditions: endpoint: mean survival time, higher = longer survival
Outline: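 Each compound was tested against a transplantable tumor grown in mice. The endpoint was survival, with treated animals benchmarked against vehicle controls as a simple ratio.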

[1] = dose: 100.0 mg/kg/injection, schedule: Q01DX001 (ip), vehicle: saline
[2] = dose: 200.0 mg/kg/injection, schedule: Q01DX001 (ip), vehicle: saline
[3] = dose: 400.0 mg/kg/injection, schedule: Q01DX001 (ip), vehicle: saline
[4] = dose: 100.0 mg/kg/injection, schedule: Q01DX001 (ip), vehicle: carboxymethylcellulose (CMC)
[5] = dose: 200.0 mg/kg/injection, schedule: Q01DX001 (ip), vehicle: carboxymethylcellulose (CMC)
[6] = dose: 100.0 mg/kg/injection, schedule: Q04DX003 (ip), vehicle: saline with Tween-80
[7] = dose: 200.0 mg/kg/injection, schedule: Q04DX003 (ip), vehicle: saline with Tween-80
[8] = dose: 400.0 mg/kg/injection, schedule: Q04DX003 (ip), vehicle: saline with Tween-80
[9] = dose: 25.0 mg/kg/injection, schedule: Q01DX009 (ip), vehicle: Klucel (hydroxypropylcellulose) (HPC)
[10] = dose: 50.0 mg/kg/injection, schedule: Q01DX009 (ip), vehicle: Klucel (hydroxypropylcellulose) (HPC)
[11] = dose: 100.0 mg/kg/injection, schedule: Q01DX009 (ip), vehicle: saline with Tween-80
[12] = dose: 200.0 mg/kg/injection, schedule: Q01DX009 (ip), vehicle: saline with Tween-80
[13] = dose: 400.0 mg/kg/injection, schedule: Q01DX009 (ip), vehicle: saline with Tween-80
[14] = dose: 50.0 mg/kg/injection, schedule: Q01DX009 (ip), vehicle: saline
[15] = dose: 100.0 mg/kg/injection, schedule: Q04DX003 (ip), vehicle: saline
[16] = dose: 100.0 mg/kg/injection, schedule: Q01DX009 (ip), vehicle: Klucel (hydroxypropylcellulose) (HPC)
[17] = dose: 200.0 mg/kg/injection, schedule: Q01DX009 (ip), vehicle: Klucel (hydroxypropylcellulose) (HPC)
[18] = dose: 400.0 mg/kg/injection, schedule: Q01DX009 (ip), vehicle: Klucel (hydroxypropylcellulose) (HPC)

Cc1c2cnccc2c(C)c2c1c1ccccc1n2C
T/C (dose: 29.0 mg/kg/injection, schedule: Q01DX Z (ip), vehicle: saline): 109 % of control | T/C (dose: 44.0 mg/kg/injection, schedule: Q01DX Z (ip), vehicle: saline): 123 % of control | T/C (dose: 66.0 mg/kg/injection, schedule: Q01DX Z (ip), vehicle: saline): 120 % of control | T/C (dose: 66.0 mg/kg/injection, schedule: Q01DX Z (oral), vehicle: saline): 112 % of control | T/C (dose: 100.0 mg/kg/injection, schedule: Q01DX Z (ip), vehicle: saline): 121 % of control | T/C (dose: 100.0 mg/kg/injection, schedule: Q01DX Z (oral), vehicle: saline): 115 % of control | T/C (dose: 150.0 mg/kg/injection, schedule: Q01DX Z (oral), vehicle: saline): 155 % of control | T/C (dose: 225.0 mg/kg/injection, schedule: Q01DX Z (oral), vehicle: saline): 171 % of control

O=C(N/C(=C/c1ccc([N+](=O)[O-])cc1)C(=O)c1ccccc1)c1ccc([N+](=O)[O-])cc1
T/C (dose: 50.0 mg/kg/injection, schedule: Q01DX001 (ip), vehicle: saline): 101 % of control | T/C [1]: 103 % of control | T/C [2]: 97 % of control | T/C [3]: 90 % of control

CC1(C)CC(C(=O)c2ccccc2)C(=O)c2ccccc21 (stereo unspecified)
T/C (dose: 100.0 mg/kg/injection, schedule: Q01DX001 (ip), vehicle: Klucel (hydroxypropylcellulose) (HPC)): 105 % of control | T/C (dose: 200.0 mg/kg/injection, schedule: Q01DX001 (ip), vehicle: Klucel (hydroxypropylcellulose) (HPC)): 97 % of control | T/C (dose: 400.0 mg/kg/injection, schedule: Q01DX001 (ip), vehicle: Klucel (hydroxypropylcellulose) (HPC)): 86 % of control

CCOC(=O)CCCc1ccc(N=NN(C)C(C)CC)cc1 (stereo unspecified)
T/C [4]: 111 % of control | T/C [5]: 102 % of control | T/C (dose: 400.0 mg/kg/injection, schedule: Q01DX001 (ip), vehicle: carboxymethylcellulose (CMC)): 107 % of control

Cc1cc(C)c2cc3cccc[n+]3cc2c1
T/C (dose: 2.0 mg/kg/injection, schedule: Q01DX015 (ip), vehicle: saline): 100 % of control | T/C (dose: 4.0 mg/kg/injection, schedule: Q01DX001 (ip), vehicle: carboxymethylcellulose (CMC)): 105 % of control | T/C (dose: 4.0 mg/kg/injection, schedule: Q01DX015 (ip), vehicle: saline): 107 % of control | T/C (dose: 8.0 mg/kg/injection, schedule: Q01DX001 (ip), vehicle: carboxymethylcellulose (CMC)): 107 % of control | T/C (dose: 16.0 mg/kg/injection, schedule: Q01DX001 (ip), vehicle: carboxymethylcellulose (CMC)): 107 % of control

CCn1nnnc1-c1ccc(Cl)cc1
T/C [6]: 98 % of control | T/C [7]: 98 % of control | T/C [8]: 98 % of control

CN(N=Nc1ccc(C(=N)N)cc1)C1CCCCC1
T/C (dose: 9.5 mg/kg/injection, schedule: Q01DX001 (ip), vehicle: saline): 95 % of control | T/C (dose: 19.0 mg/kg/injection, schedule: Q01DX001 (ip), vehicle: saline): 98 % of control | T/C (dose: 38.0 mg/kg/injection, schedule: Q01DX001 (ip), vehicle: saline): 95 % of control

O=C1C[C@H]2CCCC[C@@H]2O1
T/C (dose: 75.0 mg/kg/injection, schedule: Q01DX001 (ip), vehicle: other): 107 % of control | T/C (dose: 150.0 mg/kg/injection, schedule: Q01DX001 (ip), vehicle: other): 105 % of control | T/C (dose: 300.0 mg/kg/injection, schedule: Q01DX001 (ip), vehicle: other): 102 % of control

Clc1cc(Cl)c(OCC#CI)c(Cl)c1Cl
T/C (dose: 6.25 mg/kg/injection, schedule: Q01DX009 (ip), vehicle: Klucel (hydroxypropylcellulose) (HPC)): 100 % of control | T/C (dose: 12.5 mg/kg/injection, schedule: Q01DX009 (ip), vehicle: Klucel (hydroxypropylcellulose) (HPC)): 97 % of control | T/C [9]: 92 % of control | T/C [10]: 96 % of control | T/C (dose: 75.0 mg/kg/injection, schedule: Q01DX009 (ip), vehicle: Klucel (hydroxypropylcellulose) (HPC)): 98 % of control | T/C (dose: 115.0 mg/kg/injection, schedule: Q01DX009 (ip), vehicle: Klucel (hydroxypropylcellulose) (HPC)): 94 % of control | T/C (dose: 170.0 mg/kg/injection, schedule: Q01DX009 (ip), vehicle: Klucel (hydroxypropylcellulose) (HPC)): 93 % of control

O=C(O)CC(C[N+](=O)[O-])C(F)(F)C(F)(F)C(F)(F)F (stereo unspecified)
T/C [1]: 97 % of control | T/C [2]: 112 % of control | T/C [3]: 101 % of control

O=[N+]([O-])c1ccccc1N=Nc1c(O)[nH]c2ccccc12
T/C (dose: 100.0 mg/kg/injection, schedule: Q01DX001 (ip), vehicle: other): 102 % of control | T/C (dose: 200.0 mg/kg/injection, schedule: Q01DX001 (ip), vehicle: other): 98 % of control | T/C (dose: 400.0 mg/kg/injection, schedule: Q01DX001 (ip), vehicle: other): 102 % of control

CC#CCCC(=O)OCCCCC
T/C (dose: 100.0 mg/kg/injection, schedule: Q04DX002 (ip), vehicle: saline with Tween-80): 97 % of control | T/C (dose: 200.0 mg/kg/injection, schedule: Q04DX002 (ip), vehicle: saline with Tween-80): 102 % of control

COc1ccc(C2C3CC4C(OC(=O)C42)C3I)cc1 (stereo unspecified)
T/C [11]: 97 % of control | T/C [6]: 95 % of control | T/C [12]: 98 % of control | T/C [7]: 95 % of control | T/C [13]: 88 % of control | T/C [8]: 87 % of control

CCN(CC)CC(=O)NCC(CCN1CCCCC1)(CCN1CCCCC1)c1cccc2ccccc12
T/C (dose: 25.0 mg/kg/injection, schedule: Q01DX009 (ip), vehicle: saline): 96 % of control | T/C [14]: 104 % of control | T/C [15]: 110 % of control

CCNC1(c2ccc(Cl)cc2)CCCCC1=O (stereo unspecified)
T/C [14]: 105 % of control | T/C (dose: 100.0 mg/kg/injection, schedule: Q01DX009 (ip), vehicle: saline): 102 % of control | T/C [15]: 104 % of control | T/C (dose: 200.0 mg/kg/injection, schedule: Q04DX003 (ip), vehicle: saline): 106 % of control

CC/C(C)=C(/C(=O)O)c1ccccc1
T/C [6]: 91 % of control | T/C [7]: 94 % of control | T/C [8]: 94 % of control

Cc1cc(C)c2ccc(Cl)nc2n1
T/C [9]: 97 % of control | T/C [10]: 99 % of control

COC(=O)c1ccc(S(=O)(=O)O)cc1[N+](=O)[O-]
T/C (dose: 100.0 mg/kg/injection, schedule: Q04DX002 (ip), vehicle: saline): 100 % of control | T/C (dose: 200.0 mg/kg/injection, schedule: Q04DX002 (ip), vehicle: saline): 88 % of control | T/C (dose: 400.0 mg/kg/injection, schedule: Q04DX002 (ip), vehicle: saline): 96 % of control

O=C(Nc1nccs1)Nc1ccccc1Cl
T/C [16]: 96 % of control | T/C (dose: 100.0 mg/kg/injection, schedule: Q04DX002 (ip), vehicle: Klucel (hydroxypropylcellulose) (HPC)): 91 % of control | T/C [17]: 91 % of control | T/C (dose: 200.0 mg/kg/injection, schedule: Q04DX002 (ip), vehicle: Klucel (hydroxypropylcellulose) (HPC)): 98 % of control | T/C [18]: 96 % of control | T/C (dose: 400.0 mg/kg/injection, schedule: Q04DX002 (ip), vehicle: Klucel (hydroxypropylcellulose) (HPC)): 107 % of control

C#CC1(OC(N)=O)CCCCC1
T/C [16]: 98 % of control | T/C [17]: 91 % of control | T/C [18]: 98 % of control

Nc1c(Cl)ncn2[nH]c(=O)nc12
T/C [4]: 96 % of control | T/C [5]: 100 % of control

CCCC(=O)NC1CC(OC2CC(O)(C(C)=O)Cc3c(O)c4c(c(O)c32)C(=O)c2c(OC)cccc2C4=O)OC(C)C1O (stereo unspecified)
T/C (dose: 0.25 mg/kg/injection, schedule: Q01DX009 (ip), vehicle: saline): 91 % of control | T/C (dose: 0.5 mg/kg/injection, schedule: Q01DX009 (ip), vehicle: saline): 96 % of control | T/C (dose: 1.0 mg/kg/injection, schedule: Q01DX009 (ip), vehicle: saline): 91 % of control | T/C (dose: 2.0 mg/kg/injection, schedule: Q01DX009 (ip), vehicle: saline): 93 % of control | T/C (dose: 4.0 mg/kg/injection, schedule: Q01DX009 (ip), vehicle: saline): 96 % of control

CCCCCCCC(N)=O
T/C (dose: 50.0 mg/kg/injection, schedule: Q01DX009 (ip), vehicle: saline with Tween-80): 97 % of control | T/C [11]: 107 % of control and 90 % of control | T/C [6]: 100 % of control | T/C [12]: 97 % of control and 106 % of control | T/C [7]: 93 % of control | T/C [13]: 114 % of control | T/C [8]: 91 % of control
